Source: doi:10.1101/2025.11.05.686689v1 (biorxiv, 2025)

Target: CAPON (NOS1AP), recombinant, C-terminal His tag (Homo sapiens, UniProt O75052)
Test: microscale thermophoresis
Type: binding

CAPON (NOS1AP), recombinant, C-terminal His tag, sequence (O75052 whole entry): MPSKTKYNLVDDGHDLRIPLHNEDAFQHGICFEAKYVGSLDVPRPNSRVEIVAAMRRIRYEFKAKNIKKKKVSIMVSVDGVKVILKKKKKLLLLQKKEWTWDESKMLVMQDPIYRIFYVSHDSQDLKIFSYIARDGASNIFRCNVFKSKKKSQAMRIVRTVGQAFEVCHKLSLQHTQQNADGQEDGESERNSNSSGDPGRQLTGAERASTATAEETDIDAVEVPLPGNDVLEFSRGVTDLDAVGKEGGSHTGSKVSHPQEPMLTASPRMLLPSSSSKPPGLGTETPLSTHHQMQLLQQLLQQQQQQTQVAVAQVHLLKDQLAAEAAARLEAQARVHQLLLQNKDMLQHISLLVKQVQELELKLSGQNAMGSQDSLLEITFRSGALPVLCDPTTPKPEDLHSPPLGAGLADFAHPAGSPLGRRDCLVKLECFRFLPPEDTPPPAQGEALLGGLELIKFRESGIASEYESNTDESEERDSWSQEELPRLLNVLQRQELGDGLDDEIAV

COc1ccc(NC(=O)c2ccco2)cc1NC(=O)c1cc2ccccc2cc1OC [MA32]
Kd: 74 ± 15 µM
